Measured values from patent US20040133938A1, “Use of lipoic acid in plant culture media” (priority 2002, published 2004).

How the values were obtained:
[1] = test system: MicroTom cotyledon explants; assay: Transient GUS expression in MicroTom cotyledon explants; type: cell-based, Lycopersicon esculentum; settings: for % High transient expression / % Low transient expression / % No transient expression: GUS, after 5 days on selection media
Procedure: Cotyledon explants were isolated from seedlings 7 days after sowing seeds on Davis Germination medium. Cotyledon explants were prepared by bathing them in 6 mL of TXD liquid medium (4.3 g/L MS salts, 2 mL/L Gamborg's B-5 500× salts, 4 mg/L pCPA (p-chlorophenoxyactic acid), 0.005 mg/L kinetin, and 30 g/L sucrose) to prevent desiccation and trimming them at both ends using a #15 feather blade. Immediately after the trimming, the cotyledon explants were gently placed on “feeder plates” containing UC2PC medium (2.2 g/L MS salts, 2.2 mL/L, Gamborg's B-5 500× salts, 0.2 mg/L 2,4-D, 4 mg/L pCPA, 0.1 mg/L kinetin, 30 g/L sucrose, 0.2 g/L potassium phosphate, 10 g/L agar, 8 mL/L acetosyringone (4.91 mg/mL), and 4 mL galacturonic acid (53.05 mg/mL)). The “feeder plates” are made by overlaying 2 mL of tobacco suspension cells and a sterile Whatman filter on the plates containing UC2PC medium. The cotyledon explants were gently poked with a sharp forceps (ASIM5311, Stainless French, made in Switzerland). Usually six to ten pokes were made per explant depending the size of cotyledons. Right after poking, the cotyledons were inoculated with Agrobacterium containing pMON15715 (FIG. 1) by adding 3 mL of the adjusted Agrobacterium solution on top of the cotyledons. The plates were incubated for 10 min at room temperature, and the Agrobacterium solution was aspirated with a sterile pipette. The cotyledons were then co-cultured for 2 days at 23-24° C. under a 16-h photoperiod. The co-culture plates were placed in plastic bags to keep the humidity, which is preferable for MicroTom growth.
Two days after co-cultivation, cotyledons were transferred to shoot induction medium SI-2 (4.3 g/L MS salts, 2 mL/L, Gamborg's B-5 500× salts, 30 g/L sucrose, 10 g/L agar, 500 mg/L carbenicillin, 100 mg/L cefotaxime, 0.1 mg/L IAA, and 2 mg/L zeatin riboside) supplemented with 10 μM of lipoic acid and 100 mg/L kanamycin. Three to four weeks after the induction stage, the cotyledons formed buds or shoots. Cotyledons with buds or shoots were separated by individual event and transferred to, shoot elongation medium E2 (SI-2 medium without IAA), supplemented with 100 mg/L kanamycin for two to four weeks. All culture plates were placed in a culture box, placed inside a plastic bag, and cultured at 23-24° C. under a 16 h photoperiod.
At the same time the tissue browning severity was measured, transient expression of the gus gene was scored. High transient expression was defined as an explant having more than 30% of the pokes that produced GUS blue spots. Low transient expression was defined as an explant having less than 30% of the pokes that produced GUS blue spots about 5 days after culturing on selection medium. Nontransient expression was determined as an explant having no GUS blue spot. With the lipoic acid treatments at the concentrations of 10 and 50 μM, the percentage of explants having high transient expression doubled from 30% (non-lipoic acid treatment) up to 60.9% (Table 2). […] When lipoic acid was used in the selection process at the concentrations of 10, 50 and 100 μM, 100% of explants transiently expressed the GUS gene, but without lipoic acid or lipoic acid at the concentration of 5 μM, 20% and 9.5% of explants had no GUS transient expression.

[2] = test system: cotton hypocotyl explants; assay: Cotton transformation: embryogenic callus formation, lipoic acid in UMSEL media; type: cell-based; settings: average from 3 experiments
Procedure: Cotton seed was washed in 2 teaspoons of detergent in 700-800 mL of sterile water for 10 minutes. Seed was then soaked in fungicide solution (0.6 g benlate, 0.6 g captan per 100 mL sterile water) for 10 min, drained, but not rinsed. Seed was imbibed for 30 minutes in 800 mL of 50% Clorox with 3 drops of Tween-20 and then rinsed 3 times with sterile water. Seed was spread in a sterile phytatray containing 1/2 MS plus 1% glucose media at a density of approximately 20 seeds per tray. Seeds were germinated in the dark at 28° C. for 7-10 days.
Agrobacterium was prepared by streaking a solid LBssck plate from frozen stock and incubating at 28° C. for 2 days. Two mL of liquid LBssck was inoculated with a single colony from the plate and grown overnight at 28° C. Culture is diluted 1:10 with fresh LBssck and cultured overnight at 28° C. The cells were spun down, the supernatant was poured off, cells were washed with MSO media and then resuspended in 20 mL of MSO.
Explants were harvested by cutting off the cotyledons and then making a cut approximately 4 to 6 cm below the cotyledon. Hypocotyl sections were placed in MSO media and then cut into 0.5 to 1 cm pieces.
Twenty mL of Agrobacterium broth was added to 100 to 500 cut explant sections and allowed to soak for 20 minutes. Explants were moved to co-culture medium (TrCO; see media descriptions below), covered with a plastic bag and co-cultured at room temperature for 2 days. After co-culture, explants were moved to UMSEL (1) media (with kanamycin or glyphosate selection), parafilmed and cultured in the light ( 16/8 photoperiod) at 28° C. for 4 weeks. Tissue was then transferred to fresh UMSEL (2) media containing selection in the same culture conditions for an additional 4 weeks.
Independent calli that had formed were then moved to UMO(1) containing selection, parafilmed and cultured in the dark at 28° C. for 8 weeks. After 8 weeks, tissue was transferred to fresh UMO(2) containing selection, parafilmed, and cultured in the dark for an additional 8 weeks. Good embryogenic callus was moved to TRP embryo maturation media, parafilmed and cultured in the dark at 28° C. Embryogenic callus was subcultured to fresh TRP media every 4 weeks until somatic embryos formed and were moved to SHSU embryo germination media. Once on parafilmed SHSU plates, the shoots were placed in the light at 28° C. and subcultured every four weeks until roots began to form. When healthy roots and leaves were present, the shoots were moved to SHSU media in sundae cups and eventually to soil.

[3] = 5 μM lipoic acid for 8 weeks in UMSEL media
[4] = 10 μM lipoic acid for 8 weeks in UMSEL media
[5] = 50 μM lipoic acid for 8 weeks in UMSEL media
[6] = 100 μM lipoic acid for 8 weeks in UMSEL media

For `O=C(O)CCCCC1CCSS1` (stereo not shown) [lipoic acid, 1,2-dithiolane-3-pentanoic acid], the “% High transient expression” value ([1]; 5 μM lipoic acid) was 42.9%, the “% Low transient expression” value ([1]; 5 μM lipoic acid) was 47.6% and the “% No transient expression” value ([1]; 5 μM lipoic acid) was 9.5%. For the same compound, the “% High transient expression” value ([1]; 10 μM lipoic acid) was 60.9%, the “% Low transient expression” value ([1]; 10 μM lipoic acid) was 39.1% and the “% No transient expression” value ([1]; 10 μM lipoic acid) was 0%. For the same compound, the “% High transient expression” value ([1]; 50 μM lipoic acid) was 56.5%, the “% Low transient expression” value ([1]; 50 μM lipoic acid) was 43.5% and the “% No transient expression” value ([1]; 50 μM lipoic acid) was 0%. The “% High transient expression” value ([1]; 100 μM lipoic acid) was 34.8%, the “% Low transient expression” value ([1]; 100 μM lipoic acid) was 65.2% and the “% No transient expression” value ([1]; 100 μM lipoic acid) was 0%. The “% of explants that transiently expressed the GUS gene” value ([1]; lipoic acid at 10, 50 and 100 μM in the selection process) was 100%, the “increase of the percentage of explants having high level of transient expression” value ([1]; summary, MicroTom transformation) was 2 fold and the “Frequency (%) of embryogenic callus formation” value (from here on “Frequency (%)”) [2, 3] was 49.4%. The Putative embryogenic calli [2, 3] was 132, the “Frequency (%)” value [2, 4] was 31.4% and the Putative embryogenic calli [2, 4] was 88. The “Frequency (%)” value [2, 5] was 61.2%, the Putative embryogenic calli [2, 5] was 120 and the “Frequency (%)” value [2, 6] was 56.6%. It also gave a Putative embryogenic calli [2, 6] of 107.
